From US20250361243A1, “Compounds and Pharmaceutical Compositions Useful for Managing Sickle Cell Disease and Conditions Related Thereto” (Emory University, priority 2022, published 2025) come the findings set out here.

Common to all, as to type: cell-based
In test [1] the test system is Human RBC. Briefly: Imaging-based anti-sickling assay, human RBC. The source says: (§1) An imaging assay utilizing automated microscopy and customized algorithms was used to detect sickled or normal (round shaped) RBCs. The assay is capable of discovering anti-sickling agents with physiologically relevant oxygen affinity. The assay uses native mouse or human RBCs, enabling one to identify a broader spectrum of agents and is not restricted to compounds that require direct interaction (e.g., with purified hemoglobin). Thus, in contrast to hemoglobin binding assays, this approach allows for the identification of additional classes of anti-sickling agents that modulate pathways affecting RBC sickling. Compounds resulting from the experiments are also useful for investigating SCD pathophysiology.
(§2) The imaging-based protocol that can distinguish sickled vs normal (round) phenotype of intact RBCs originating from genetically engineered mice expressing human hemoglobin genes (the HbSS Townes knock-in sickle mice), or 2) SCD patients. The imaging was conducted using a BioTek Cytation™ cell imaging multimode reader and software to detect sickled or normal round-shaped phenotype of RBCs with negative control (vehicle treatment) and a positive control, 5-hydroxymethylfurfural (5-HMF).

For test [2], the system named is ss Mouse RBC. The test can be described thus: Imaging-based anti-sickling assay, ss mouse RBC. The note with it: read-out: Anti-sickling activity (EC50; μM) ss Mouse RBC.
Text: as §1, §2

Test [3] relates to RBCs. The test can be described thus: Anti-sickling activity normalized to 5 mM 5-HMF (Table 2). The note with it: for EC50: read-out: EC50 for anti-sickling activity (uM, normalized to positive control of 5 mM 5-HMF).
Text: as §1, §2

The mark [4] stands for this setting: Homo sapiens; read-out: Anti-sickling activity (EC50; μM) Human RBC.

Read-outs that look alike come from different tables or passages of the source.

`Cc1ccc(N2C(=O)C=CC2=O)cc1` [HDYB-21, 1-(p-tolyl)-1H-pyrrole-2,5-dione]: the results for the EC50 in test [1] (setting [4]) and in test [2] were 32 µM and 37 µM, respectively.

In the case of `O=C1C=CC(=O)N1c1ccc2c(c1)CCO2` [HDYB-26, 1-(2,3-dihydrobenzofuran-5-yl)-1H-pyrrole-2,5-dione], the EC50 in test [1] (setting [4]) is 13 µM; in test [2], 9 µM.

Regarding `CC(C)CCNCC(O)Cn1c2ccc(Cl)cc2c2cc(Cl)ccc21` (stereo not shown) [SCAS2-A2, 1-(3,6-dichloro-9H-carbazol-9-yl)-3-(isopentylamino) propan-2-ol], the entries for the “Anti-sickling activity (%, normalized to positive control of 5 mM 5-HMF)” value in test [3] (10 uM), in test [3] (33 uM) and in test [3] (100 uM) were 21.45%, 25.26% and 213.95%, respectively.

With `O=C1C=CC(=O)N1c1cccnc1` [HDYB-15], the EC50 in test [1] (setting [4]) and in test [2] was less than 100 µM each time.

In the case of `O=C1C=CC(=O)N1c1cccc(F)c1` [HDYB-24, 1-(3-fluorophenyl)-1H-pyrrole-2,5-dione], the EC50 is 14 µM in test [1] (setting [4]) and 11 µM in test [2].

For the compound `O=C1C=CC(=O)N1c1ccc(Br)cc1Cl` [HDYB-6, 1-(4-bromo-2-chlorophenyl)-1H-pyrrole-2,5-dione], the EC50 in test [1] (setting [4]) was determined as 12 µM; in test [2], 20 µM.

On to `O=C1C=CC(=O)N1c1ccc(I)cc1` [HDYB-22, 1-(4-iodophenyl)-1H-pyrrole-2,5-dione], for which the EC50 in test [1] (setting [4]) was determined as 41 µM; in test [2], 13 µM.

With `O=C1C=CC(=O)N1c1cnc2ccccc2c1` [HDYB-17], the EC50 in test [1] (setting [4]) and in test [2] was less than 100 µM in each case.

In the case of `O=C1C=CC(=O)N1CCCCN1C(=O)C=CC1=O` [HDYB-9], the EC50 in test [1] (setting [4]) was 78 µM; in test [2], 29 µM.

In the case of `CC(C)CCNCC(O)Cn1c2ccc(Br)cc2c2cc(Br)ccc21` (stereo not shown) [SCAS2-A13, 1-(3,6-dibromo-9H-carbazol-9-yl)-3-(isopentylamino) propan-2-ol], the “Anti-sickling activity (%, normalized to positive control of 5 mM 5-HMF)” value in test [3] (10 uM) came to 71.04%; in test [3] (33 uM), 90.158%; in test [3] (100 uM), 35.39%.

`O=C1C=CC(=O)N1c1cccc(Cl)c1` [HDYB-1, 1-(3-chlorophenyl)-1H-pyrrole-2,5-dione]: the EC50 in test [1] (setting [4]) stood at 6.3 µM; in test [2], 5 µM.

Consider `O=C1C=CC(=O)N1c1ccccc1` [HDYB-5, 1-phenyl-1H-pyrrole-2,5-dione], for which the EC50 in test [1] (setting [4]) came to 17 µM; in test [2] it was 21 µM.

`O=C1C=CC(=O)N1c1cccc(C(F)(F)F)c1` [HDYB-3, 1-(3-(trifluoromethyl)phenyl)-1H-pyrrole-2,5-dione]: the EC50 in test [1] (setting [4]) and in test [2] was 12 µM in each case.

Turning to `O=C1C=CC(=O)N1c1cccc(N2C(=O)C=CC2=O)c1` [HDYB-10], the EC50 in test [1] (setting [4]) was 57 µM; in test [2], 78 µM.

For `Cc1ccc(N2C(=O)C=CC2=O)cc1Cl` [HDYB-2, 1-(3-chloro-4-methylphenyl)-1H-pyrrole-2,5-dione], the figures for the EC50 in test [1] (setting [4]) and in test [2] were 19 µM and 15 µM, respectively.

With `O=C1C=CC(=O)N1c1ccc(-c2ccccc2)cc1` [HDYB-23, 1-([1,1′-biphenyl]-4-yl)-1H-pyrrole-2,5-dione], the EC50 in test [1] (Homo sapiens, read-out: Anti-sickling activity (EC50; μM) Human RBC) was 52 µM; in test [2], 68 µM.

On to `Nc1nc2ccc(S(=O)(=O)N3CCCCC3)cc2s1` [SCAS2_02, 6-(piperidin-1-ylsulfonyl)benzo[d]thiazol-2-amine], for which the EC50 in test [3] is 25.4 µM.

Take `Cc1ccc(Cl)cc1N1C(=O)C=CC1=O` [HDYB-12, 1-(5-chloro-2-methylphenyl)-1H-pyrrole-2,5-dione]: the values for the half-maximal effective concentration (EC50) in test [1] (setting [4]) and in test [2] were 12 µM and 16 µM, respectively.

`COc1ccc(Cl)cc1NC(=O)Nc1nc2c(s1)CN(S(=O)(=O)C1CC1)CC2` [SCAS2_05, 1-(5-chloro-2-methoxyphenyl)-3-(5-(cyclopropylsulfonyl)-4,5,6,7-tetrahydrothiazolo[5,4-c]pyridin-2-yl)urea]: in test [1] (FIG. 2; 50 μM; compared to normoxic conditions and control drug 5 mM 5-HMF), the “round shape morphology of RBCs” value is “fully restore round shape morphology”. Also, in test [1] (FIG. 2; dose response), the “prevention of sickling of RBCs from sickle cells patients” value is on record as “dose dependently prevent sickling”. Besides, the EC50 in test [3] was 2.25 µM.

As for `O=C1C(=O)N(Cc2ccccc2)c2ccc(Cl)cc21` [HDYB-19], the EC50 turned out to be 25 µM in test [1] (setting [4]) and 27 µM in test [2].

Regarding `O=C1C=C(Nc2ccccc2)C(=O)N1c1ccccc1` [HDYB-11], the half-maximal effective concentration (EC50) in test [1] (setting [4]) and in test [2] was less than 100 µM each time.

Turning to `O=C1C=CC(=O)N1c1cc(Cl)c(N2C(=O)C=CC2=O)cc1Cl` [HDYB-25, 1,1′-(2,5-dichloro-1,4-phenylene)bis(1H-pyrrole-2,5-dione)], the figures for the EC50 in test [1] (setting [4]) and in test [2] were 12 µM and 10 µM, respectively.

Consider `O=C1C=CC(=O)N1c1ccc(Br)c(Cl)c1` [HDYB-14, 1-(4-bromo-3-chlorophenyl)-1H-pyrrole-2,5-dione], for which the EC50 in test [1] (setting [4]) turned out to be 23 µM; in test [2] it was 27 µM.

Regarding `O=C1C(=O)N(Cc2ccc(C(F)(F)F)cc2)c2ccc(Cl)cc21` [HDYB-20], the EC50 amounted to 26 µM in test [1] (setting [4]) and 22 µM in test [2].

As to `Cc1cc(Cl)cc(-c2ccccc2)c1N1C(=O)C=CC1=O` [HDYB-8, 1-(5-chloro-3-methyl-[1,1′-biphenyl]-2-yl)-1H-pyrrole-2,5-dione], the EC50 in test [1] (setting [4]) and in test [2] was less than 100 µM throughout.

As to `O=C1OCc2ccc(N3C(=O)C=CC3=O)cc21` [HDYB-27, 1-(3-oxo-1,3-dihydroisobenzofuran-5-yl)-1H-pyrrole-2,5-dione], the EC50 was found to be 11 µM in test [1] (setting [4]) and 10 µM in test [2].

Take `CC(C)(C)SCC(O)Cn1c2ccc(Cl)cc2c2cc(Cl)ccc21` (stereo not shown) [SCAS2_61, 1-(tert-butylthio)-3-(3,6-dichloro-9H-carbazol-9-yl) propan-2-ol]: the EC50 in test [3] turned out to be 3.12 µM.

Consider `COc1ccc(Cl)cc1NC(=O)Nc1nc2c(s1)CN(S(=O)(=O)N(C)C)CC2` [SCAS2_01, 2-(3-(5-chloro-2-methoxyphenyl)ureido)-N,N-dimethyl-6,7-dihydrothiazolo[5,4-c]pyridine-5 (4H)-sulfonamide], for which the EC50 in test [3] worked out at 1.1 µM.

Consider `Cc1ccc(N2C(=O)C=CC2=O)nc1` [HDYB-16], for which the EC50 in test [1] (setting [4]) and in test [2] was less than 100 µM in each case.

`CCC(C)NCC(O)Cn1c2ccc(Cl)cc2c2cc(Cl)ccc21` (stereo not shown) [SCAS2-A14, 1-(sec-butylamino)-3-(3,6-dichloro-9H-carbazol-9-yl) propan-2-ol]: the “Anti-sickling activity (%, normalized to positive control of 5 mM 5-HMF)” value was found to be 24.26% in test [3] (10 uM), 78.71% in test [3] (33 uM) and 131.87% in test [3] (100 uM).
